Laboratory results taken from US20260373156A1, “CANCER TREATMENTS USING MTA-COOPERATIVE PRMT5 INHIBITORS” (AMGEN INC., priority 2022, published 2026).

What was measured:
UM-UC-3 cells = assay: CellTiter-Glo viability and CalcuSyn synergy, PRMT5 inhibitor + sotorasib, 6 days; format: cell-based; conditions: for Combination Fa: 8640 min
Method: (§1) Raw luminescent values were converted to fraction affected (Fa) with the following equation: […]
Synergy analysis was performed using the CalcuSyn software to determine CI scores based on the drug concentrations used and corresponding Fa values. Results are shown in Table 6 below. *CI Values (Calcusyn): Strong Synergism: 0.1-0.3; Synergism: 0.3-0.7; Moderate Synergism: 0.7-0.85; Slight Synergism: 0.85-0.9; Nearly Additive: 0.9-1.1.

LU99 cells = assay: CellTiter-Glo viability and CalcuSyn synergy, PRMT5 inhibitor + KIF18A, 6 days; format: cell-based; conditions: for Combination Fa: 8640 min
Method: as §1
Synergy analysis was performed using the CalcuSyn software to determine CI scores based on the drug concentrations used and corresponding Fa values. Results are shown in Tables 13-15 below. *CI Values (Calcusyn): Strong Synergism: 0.1-0.3; Synergism: 0.3-0.7; Moderate Synergism: 0.7-0.85; Slight Synergism: 0.85-0.9; Nearly Additive: 0.9-1.1.

LU99 NSCLC xenografts = assay: Tumor growth inhibition, LU99 NSCLC xenografts (Example 12); format: in vivo, Female NOD/SCID mice; conditions: Compound B 100 mg/kg orally once daily + sotorasib 100 mg/kg; versus either single agent alone
Text: 10 Female NOD/SCID mice were implanted with LU99 NSCLC tumor xenografts. Mean tumor volumes for each grouping were between 100-200 mm^3. […] Plotted data represents the TGI (tumor growth inhibition), n=10 for each group.

MIAPACA2 cells [1] = assay: CellTiter-Glo cell viability, PRMT5 inhibitor + sotorasib, 6 days; format: cell-based; conditions: Compound B + sotorasib
Method: Cell viability was measured by the CellTiter-Glo Luminescence assay after 6 days. […] To assess cell growth after combination treatment, nuclear counts were performed on the IncuCyte live cell imager over 8 days.

MIAPACA2 cells [2] = assay: CellTiter-Glo viability and CalcuSyn synergy, PRMT5 inhibitor + sotorasib, 6 days (Example 15); format: cell-based; set-up: key: CI<1 synergy, CI=1 additivity, CI>1 antagonism
Method: as §1
Synergy analysis was performed using the CalcuSyn software to determine CI scores based on the drug concentrations used and corresponding Fa values. Results are shown in Table 24 below. *CI Values (Calcusyn): CI<1 indicates synergy. C=1 indicates additivity. C>1 indicates antagonism.

[3] = Compound B 0.2916 μM + sotorasib 0.00298 μM
[4] = Compound B 0.2916 μM + sotorasib 0.004768 μM
[5] = Compound B 0.2916 μM + sotorasib 0.007629 μM
[6] = Compound B 0.2916 μM + sotorasib 0.012207 μM
[7] = Compound B 0.2916 μM + sotorasib 0.019531 μM
[8] = Compound B 0.2916 μM + sotorasib 0.03125 μM
[9] = Compound B 0.0729 μM + KIF18A 0.003984 μM
[10] = Compound B 0.0729 μM + KIF18A 0.005578 μM
[11] = Compound B 0.0729 μM + KIF18A 0.007809 μM
[12] = Compound B 0.0729 μM + KIF18A 0.010933 μM
[13] = Compound B 0.0729 μM + KIF18A 0.015306 μM
[14] = Compound B 0.0729 μM + KIF18A 0.021429 μM
[15] = Compound B 0.0729 μM + KIF18A 0.03 μM

## Cc1cc2cc(C(=O)N(Cc3ccc(C(F)(F)F)cn3)[C@@H](C)c3ncccn3)ccc2nc1N [Compound B]
UM-UC-3 cells; [3]
  Computed CI value: 1.172
  Combination Fa: 0.5393
UM-UC-3 cells; [4]
  Computed CI value: 1.028
  Combination Fa: 0.6004
UM-UC-3 cells; [5]
  Computed CI value: 0.778
  Combination Fa: 0.6836
UM-UC-3 cells; [6]
  Computed CI value: 0.685
  Combination Fa: 0.7355
UM-UC-3 cells; [7]
  Computed CI value: 0.677
  Combination Fa: 0.7685
UM-UC-3 cells; [8]
  Computed CI value: 0.584
  Combination Fa: 0.8141
LU99 cells; [9]
  Computed CI value: 0.937
  Combination Fa: 0.596
LU99 cells; [10]
  Computed CI value: 0.625
  Combination Fa: 0.7067
LU99 cells; [11]
  Computed CI value: 0.753
  Combination Fa: 0.712
LU99 cells; [12]
  Computed CI value: 0.651
  Combination Fa: 0.7754
LU99 cells; [13]
  Computed CI value: 0.797
  Combination Fa: 0.785
LU99 cells; [14]
  Computed CI value: 0.996
  Combination Fa: 0.7939
LU99 cells; [15]
  Computed CI value: 1.312
  Combination Fa: 0.797
LU99 NSCLC xenografts
  anti-tumor activity: significant anti-tumor activity versus either single agent alone
MIAPACA2 cells [1]
  cell viability: reduced MIAPACA2 cell viability
MIAPACA2 cells [2]; Compound B 0.018 μM + sotorasib 0.006 μM
  CI score: 0.68
MIAPACA2 cells [2]; Compound B 0.018 μM + sotorasib 0.010 μM
  CI score: 0.73
MIAPACA2 cells [2]; Compound B 0.018 μM + sotorasib 0.015 μM
  CI score: 0.64
MIAPACA2 cells [2]; Compound B 0.018 μM + sotorasib 0.024 μM
  CI score: 0.80
MIAPACA2 cells [2]; Compound B 0.018 μM + sotorasib 0.039 μM
  CI score: 0.77
MIAPACA2 cells [2]; Compound B 0.018 μM + sotorasib 0.063 μM
  CI score: 0.93
MIAPACA2 cells [2]; Compound B 0.018 μM + sotorasib 0.100 μM
  CI score: 1.25
MIAPACA2 cells [2]; Compound B 0.034 μM + sotorasib 0.006 μM
  CI score: 0.55
MIAPACA2 cells [2]; Compound B 0.034 μM + sotorasib 0.010 μM
  CI score: 0.59
MIAPACA2 cells [2]; Compound B 0.034 μM + sotorasib 0.015 μM
  CI score: 0.56
MIAPACA2 cells [2]; Compound B 0.034 μM + sotorasib 0.024 μM
  CI score: 0.76
MIAPACA2 cells [2]; Compound B 0.034 μM + sotorasib 0.039 μM
  CI score: 0.79
MIAPACA2 cells [2]; Compound B 0.034 μM + sotorasib 0.063 μM
  CI score: 0.83
MIAPACA2 cells [2]; Compound B 0.034 μM + sotorasib 0.100 μM
  CI score: 1.43
MIAPACA2 cells [2]; Compound B 0.064 μM + sotorasib 0.006 μM
  CI score: 0.52
MIAPACA2 cells [2]; Compound B 0.064 μM + sotorasib 0.010 μM
  CI score: 0.65
MIAPACA2 cells [2]; Compound B 0.064 μM + sotorasib 0.015 μM
  CI score: 0.68
MIAPACA2 cells [2]; Compound B 0.064 μM + sotorasib 0.024 μM
  CI score: 0.53
MIAPACA2 cells [2]; Compound B 0.064 μM + sotorasib 0.039 μM
  CI score: 0.72
MIAPACA2 cells [2]; Compound B 0.064 μM + sotorasib 0.063 μM
  CI score: 0.75
MIAPACA2 cells [2]; Compound B 0.064 μM + sotorasib 0.100 μM
  CI score: 1.24
MIAPACA2 cells [2]; Compound B 0.121 μM + sotorasib 0.006 μM
  CI score: 0.63
MIAPACA2 cells [2]; Compound B 0.121 μM + sotorasib 0.010 μM
  CI score: 0.71
MIAPACA2 cells [2]; Compound B 0.121 μM + sotorasib 0.015 μM
  CI score: 0.53
MIAPACA2 cells [2]; Compound B 0.121 μM + sotorasib 0.024 μM
  CI score: 0.64
MIAPACA2 cells [2]; Compound B 0.121 μM + sotorasib 0.039 μM
  CI score: 0.67
MIAPACA2 cells [2]; Compound B 0.121 μM + sotorasib 0.063 μM
  CI score: 0.96
MIAPACA2 cells [2]; Compound B 0.121 μM + sotorasib 0.100 μM
  CI score: 1.02
